From patent US8198273B2, “Compounds and methods for kinase modulation, and indications therefor” (Plexxikon Inc., priority 2009, dated 2012)

Experiments:
[1] = Relative solubility by turbidity in aqueous buffers of varying pH; format: physicochemical; conditions: for turbidity threshold (L, M, H) 7.4: HEPES pH 7.4; for turbidity threshold (L, M, H) 4.5: SIF pH 4.5; for turbidity threshold (L, M, H) 6.8: SIF pH 6.8; for turbidity threshold (L, M, H) 1.4: buffer pH 1.4 (SGF)
In short: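 Turbidity endpoint: concentration where optical density at 490, 535 and 650 nm exceeds 0.01, three-wavelength average used. Buffers at pH 1.5, 4.5, 6.8 and 7.4; DMSO serial dilutions of 25 mM stock spiked 1 μL into 99 μL buffer. Low <31.3, moderate 31.3–250, high >250 μM.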

[2] = test system: A375 melanoma cells (B-Raf V600E); experiment: A375 cell growth inhibition (ATPlite); format: cell-based; conditions: Homo sapiens, A-375, 72 h; A375, 3 days incubation
In short: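 Cells plated overnight, then exposed 3 days at 37° C to 8-point 1:3 compound dilutions topping at 10 μM final. Viability read as ATPlite luminescence, proportional to cell number; IC50 from luminescence versus concentration.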

CYP2D6 = CYP2D6 (Homo sapiens, UniProt P10635); experiment: CYP2D6 inhibition (fluorescent substrate); format: in vitro ADME; conditions: CYP2D6, AMMC substrate; read-out: Cyp IC50 2D6
Chain of CYP2D6 (P10635 whole entry): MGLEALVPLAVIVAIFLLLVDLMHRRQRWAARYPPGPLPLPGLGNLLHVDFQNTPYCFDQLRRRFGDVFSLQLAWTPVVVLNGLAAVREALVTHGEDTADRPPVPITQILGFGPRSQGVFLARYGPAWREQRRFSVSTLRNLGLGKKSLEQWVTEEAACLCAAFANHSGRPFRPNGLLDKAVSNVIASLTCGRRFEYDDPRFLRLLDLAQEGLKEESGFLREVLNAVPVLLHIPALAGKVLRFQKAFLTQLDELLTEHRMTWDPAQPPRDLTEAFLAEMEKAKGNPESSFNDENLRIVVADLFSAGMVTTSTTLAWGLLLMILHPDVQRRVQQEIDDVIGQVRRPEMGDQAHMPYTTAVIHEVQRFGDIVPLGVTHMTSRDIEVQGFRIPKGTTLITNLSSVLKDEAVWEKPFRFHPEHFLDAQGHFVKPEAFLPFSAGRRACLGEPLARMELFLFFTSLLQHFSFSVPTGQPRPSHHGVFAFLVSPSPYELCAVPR
In short: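 Human CYP activity was followed by the fluorescence of the metabolized product of a known substrate, which falls as metabolism is inhibited. Compounds from 100 mM DMSO stocks were serially diluted 1:1 over 10 points in co-factor mix and preincubated 10 min at 37 °C. IC50 was fitted from signal versus concentration.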

Structure (SMILES)	IC50 [2]	IC50 (CYP2D6)	turbidity threshold (L, M, H) 7.4 [1]	turbidity threshold (L, M, H) 4.5 [1]	turbidity threshold (L, M, H) 6.8 [1]	turbidity threshold (L, M, H) 1.4 [1]
COc1cnc2[nH]cc(C(=O)c3c(F)ccc(NS(=O)(=O)c4cc(F)ccc4F)c3F)c2c1 [P-2010, N-[2,4-Difluoro-3-(5-methoxy-1H-pyrrolo[2,3-b]pyridine-3-carbonyl)-phenyl]-2,5-difluoro-benzenesulfonamide]	< 1 µM	> 10 µM	M (moderate solubility if the threshold concentration is 31.3 μM to 250 μM)	L (low solubility if the threshold concentration is <31.3 04)	M (moderate solubility if the threshold concentration is 31.3 μM to 250 μM)	L (low solubility if the threshold concentration is <31.3 04)
CCCS(=O)(=O)Nc1ccc(F)c(C(=O)c2c[nH]c3ncc(-c4ccc(S(=O)(=O)N5CCOCC5)cc4)cc23)c1F [P-2166, Propane-1-sulfonic acid (2,4-difluoro-3-{5-[4-(morpholine-4-sulfonyl)-phenyl]-1H-pyrrolo[2,3-b]pyridine-3-carbonyl}-phenyl)-amide]	< 1 µM	> 10 µM	L (low solubility if the threshold concentration is <31.3 04)	L (low solubility if the threshold concentration is <31.3 04)	L (low solubility if the threshold concentration is <31.3 04)	L (low solubility if the threshold concentration is <31.3 04)
CCCS(=O)(=O)Nc1ccc(F)c(C(=O)c2c[nH]c3ncc(-c4ccc(C(=O)NC)nc4)cc23)c1F [P-2180, 5-{3-[2,6-Difluoro-3-(propane-1-sulfonylamino)-benzoyl]-1H-pyrrolo[2,3-b]pyridin-5-yl}-pyridine-2-carboxylic acid methylamide]	< 1 µM	> 10 µM	L (low solubility if the threshold concentration is <31.3 04)	L (low solubility if the threshold concentration is <31.3 04)	L (low solubility if the threshold concentration is <31.3 04)	L (low solubility if the threshold concentration is <31.3 04)
O=C(c1c(F)ccc(NS(=O)(=O)c2ccccc2F)c1F)c1c[nH]c2nccc(Cl)c12 [P-2017, N-[3-(4-Chloro-1H-pyrrolo[2,3-b]pyridine-3-carbonyl)-2,4-difluoro-phenyl]-2-fluoro-benzenesulfonamide]	< 1 µM	> 10 µM	M (moderate solubility if the threshold concentration is 31.3 μM to 250 μM)	M (moderate solubility if the threshold concentration is 31.3 μM to 250 μM)	M (moderate solubility if the threshold concentration is 31.3 μM to 250 μM)	M (moderate solubility if the threshold concentration is 31.3 μM to 250 μM)
CCCS(=O)(=O)Nc1ccc(F)c(C(=O)c2c[nH]c3ncc(-c4cncc(S(C)(=O)=O)c4)cc23)c1F [P-2188, Propane-1-sulfonic acid {2,4-difluoro-3-[5-(5-methanesulfonyl-pyridin-3-yl)-1H-pyrrolo[2,3-b]pyridine-3-carbonyl]-phenyl}-amide]	< 10 µM	> 10 µM	M (moderate solubility if the threshold concentration is 31.3 μM to 250 μM)	L (low solubility if the threshold concentration is <31.3 04)	L (low solubility if the threshold concentration is <31.3 04)	M (moderate solubility if the threshold concentration is 31.3 μM to 250 μM)
N#Cc1cnc2[nH]cc(C(=O)c3cccc(NS(=O)(=O)c4ccccc4F)c3F)c2c1 [P-2051, N-[3-(5-Cyano-1H-pyrrolo[2,3-b]pyridine-3-carbonyl)-2-fluoro-phenyl]-2-fluoro-benzenesulfonamide]	< 1 µM	> 10 µM	M (moderate solubility if the threshold concentration is 31.3 μM to 250 μM)	M (moderate solubility if the threshold concentration is 31.3 μM to 250 μM)	M (moderate solubility if the threshold concentration is 31.3 μM to 250 μM)	M (moderate solubility if the threshold concentration is 31.3 μM to 250 μM)

Now from value to molecule, other results behind:

IC50 [2]	IC50 (CYP2D6)	Structure (SMILES)	turbidity threshold (L, M, H) 7.4 [1]	turbidity threshold (L, M, H) 4.5 [1]	turbidity threshold (L, M, H) 6.8 [1]	turbidity threshold (L, M, H) 1.4 [1]
< 1 µM	> 10 µM	CCCS(=O)(=O)Nc1ccc(F)c(C(=O)c2c[nH]c3ncc(-c4cnc(N5CCOCC5)nc4)cc23)c1F [P-2197, Propane-1-sulfonic acid {2,4-difluoro-3-[5-(2-morpholin-4-yl-pyrimidin-5-yl)-1H-pyrrolo[2,3-b]pyridine-3-carbonyl]-phenyl}-amide]	L (low solubility if the threshold concentration is <31.3 04)	L (low solubility if the threshold concentration is <31.3 04)	L (low solubility if the threshold concentration is <31.3 04)	M (moderate solubility if the threshold concentration is 31.3 μM to 250 μM)
< 1 µM	> 10 µM	C#Cc1cnc2[nH]cc(C(=O)c3c(F)ccc(NS(=O)(=O)CCC)c3F)c2c1 [P-2260, Propane-1-sulfonic acid [3-(5-ethynyl-1H-pyrrolo[2,3-b]pyridine-3-carbonyl)-2,4-difluoro-phenyl]-amide]	L (low solubility if the threshold concentration is <31.3 04)	L (low solubility if the threshold concentration is <31.3 04)	L (low solubility if the threshold concentration is <31.3 04)	L (low solubility if the threshold concentration is <31.3 04)
< 1 µM	> 10 µM	CCCS(=O)(=O)Nc1ccc(F)c(C(=O)c2c[nH]c3ncc(-c4cnc(N(C)C)nc4)cc23)c1F [P-2196, Propane-1-sulfonic acid {3-[5-(2-dimethylamino-pyrimidin-5-yl)-1H-pyrrolo[2,3-b]pyridine-3-carbonyl]-2,4-difluoro-phenyl}-amide]	L (low solubility if the threshold concentration is <31.3 04)	L (low solubility if the threshold concentration is <31.3 04)	L (low solubility if the threshold concentration is <31.3 04)	M (moderate solubility if the threshold concentration is 31.3 μM to 250 μM)
< 0.1 µM	> 10 µM	CCCS(=O)(=O)Nc1ccc(F)c(C(=O)c2c[nH]c3ncc(-c4ccc(OCCCN5CCCC5)nc4)cc23)c1F [P-2235, Propane-1-sulfonic acid (2,4-difluoro-3-{5-[6-(3-pyrrolidin-1-yl-propoxy)-pyridin-3-yl]-1H-pyrrolo[2,3-b]pyridine-3-carbonyl}-phenyl)-amide]	L (low solubility if the threshold concentration is <31.3 04)	M (moderate solubility if the threshold concentration is 31.3 μM to 250 μM)	L (low solubility if the threshold concentration is <31.3 04)	L (low solubility if the threshold concentration is <31.3 04)
